# How the values were obtained:
# [1] = biological target: T1, HiBit-BRG1 fusion protein (Homo sapiens, UniProt P51532); assay: HiBiT-BRG1 cell-based degradation assay (Nano-Glo HiBiT Lytic Detection, 24 h); conditions: HeLa cells expressing HiBit-BRG1 and LgBit; for DC50: read-out: BRG1 HiBit Degradation IC50; for Dmax: HeLa, top dose 30 μM, read-out: BRG1 HiBit Degradation Maximum measured
# T1 construct: expressed in transfected cells
# In short: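 Stable HeLa line expressing HiBiT-BRG1 and LgBiT, seeded at 5000 cells/well; luminescence read after lytic Nano-Glo HiBiT reagent and 10 min shaking at RT. % degradation normalised between DMSO (high control) and 2 μM reference BRM/BRG1 degrader (low control).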
# [2] = biological target: T2, HiBit-BRM fusion protein (Homo sapiens, UniProt P51531); assay: HiBiT-BRM cell-based degradation assay (Nano-Glo HiBiT Lytic Detection, 24 h); conditions: HeLa cells expressing HiBiT-BRM; for DC50: read-out: BRM HiBit Degradation IC50; for BRM HiBit Degradation Maximum measured: top dose 30 μM
# T2 construct: expressed in transfected cells
# In short: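 HeLa cells stably expressing HiBiT-BRM were treated for 24 h with compounds (10-point 3-fold dilutions, 30 μM final top dose, in duplicate). HiBiT was detected by lytic LgBiT complementation luminescence. % degradation was normalized to DMSO (high control) and 2 μM of a reference BRM/BRG1 degrader (low control).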
# T1 sequence (P51532 whole entry, the tested form may be a part): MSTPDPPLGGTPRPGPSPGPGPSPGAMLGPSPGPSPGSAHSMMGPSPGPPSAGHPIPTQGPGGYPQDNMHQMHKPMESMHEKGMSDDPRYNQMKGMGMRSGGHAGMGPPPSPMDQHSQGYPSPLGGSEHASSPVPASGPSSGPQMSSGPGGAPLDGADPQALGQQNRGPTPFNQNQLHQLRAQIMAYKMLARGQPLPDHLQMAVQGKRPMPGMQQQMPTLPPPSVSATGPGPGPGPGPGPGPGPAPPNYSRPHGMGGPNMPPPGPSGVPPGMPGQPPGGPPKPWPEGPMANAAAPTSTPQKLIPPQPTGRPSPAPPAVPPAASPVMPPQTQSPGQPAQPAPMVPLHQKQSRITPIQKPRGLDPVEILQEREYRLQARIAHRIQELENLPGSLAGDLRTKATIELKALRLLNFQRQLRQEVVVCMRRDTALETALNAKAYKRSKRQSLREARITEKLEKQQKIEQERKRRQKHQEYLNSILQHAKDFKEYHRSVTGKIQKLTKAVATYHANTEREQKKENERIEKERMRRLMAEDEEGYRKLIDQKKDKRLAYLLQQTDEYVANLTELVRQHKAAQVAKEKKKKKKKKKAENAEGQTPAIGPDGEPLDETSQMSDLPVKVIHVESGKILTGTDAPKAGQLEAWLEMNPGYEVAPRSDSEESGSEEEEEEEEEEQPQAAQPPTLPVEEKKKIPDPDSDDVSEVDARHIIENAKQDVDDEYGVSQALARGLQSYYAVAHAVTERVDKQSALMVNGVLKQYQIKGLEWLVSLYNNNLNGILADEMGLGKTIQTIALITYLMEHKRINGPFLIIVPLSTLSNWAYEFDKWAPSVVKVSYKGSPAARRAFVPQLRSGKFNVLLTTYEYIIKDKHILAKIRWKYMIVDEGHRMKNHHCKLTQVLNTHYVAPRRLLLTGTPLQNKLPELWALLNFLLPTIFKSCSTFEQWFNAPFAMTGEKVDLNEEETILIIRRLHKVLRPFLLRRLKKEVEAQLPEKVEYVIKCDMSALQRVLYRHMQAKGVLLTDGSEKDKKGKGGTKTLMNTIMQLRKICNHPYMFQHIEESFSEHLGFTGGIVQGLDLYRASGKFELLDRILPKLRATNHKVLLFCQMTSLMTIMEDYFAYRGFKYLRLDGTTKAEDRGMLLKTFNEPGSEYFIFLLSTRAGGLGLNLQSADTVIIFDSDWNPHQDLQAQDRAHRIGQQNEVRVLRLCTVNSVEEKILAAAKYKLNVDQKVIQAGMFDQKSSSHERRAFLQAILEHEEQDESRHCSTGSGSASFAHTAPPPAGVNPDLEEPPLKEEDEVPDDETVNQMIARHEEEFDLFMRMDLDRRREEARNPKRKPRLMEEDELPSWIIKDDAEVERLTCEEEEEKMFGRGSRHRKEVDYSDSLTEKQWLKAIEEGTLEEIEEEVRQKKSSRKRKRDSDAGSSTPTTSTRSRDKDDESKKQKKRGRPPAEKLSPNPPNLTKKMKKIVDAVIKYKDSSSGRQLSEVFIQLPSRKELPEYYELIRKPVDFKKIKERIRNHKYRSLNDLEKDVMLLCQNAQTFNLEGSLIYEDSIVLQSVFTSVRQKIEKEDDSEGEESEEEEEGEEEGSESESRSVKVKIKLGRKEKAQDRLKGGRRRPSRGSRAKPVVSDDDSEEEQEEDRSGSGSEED
# T2 sequence (P51531 whole entry, the tested form may be a part): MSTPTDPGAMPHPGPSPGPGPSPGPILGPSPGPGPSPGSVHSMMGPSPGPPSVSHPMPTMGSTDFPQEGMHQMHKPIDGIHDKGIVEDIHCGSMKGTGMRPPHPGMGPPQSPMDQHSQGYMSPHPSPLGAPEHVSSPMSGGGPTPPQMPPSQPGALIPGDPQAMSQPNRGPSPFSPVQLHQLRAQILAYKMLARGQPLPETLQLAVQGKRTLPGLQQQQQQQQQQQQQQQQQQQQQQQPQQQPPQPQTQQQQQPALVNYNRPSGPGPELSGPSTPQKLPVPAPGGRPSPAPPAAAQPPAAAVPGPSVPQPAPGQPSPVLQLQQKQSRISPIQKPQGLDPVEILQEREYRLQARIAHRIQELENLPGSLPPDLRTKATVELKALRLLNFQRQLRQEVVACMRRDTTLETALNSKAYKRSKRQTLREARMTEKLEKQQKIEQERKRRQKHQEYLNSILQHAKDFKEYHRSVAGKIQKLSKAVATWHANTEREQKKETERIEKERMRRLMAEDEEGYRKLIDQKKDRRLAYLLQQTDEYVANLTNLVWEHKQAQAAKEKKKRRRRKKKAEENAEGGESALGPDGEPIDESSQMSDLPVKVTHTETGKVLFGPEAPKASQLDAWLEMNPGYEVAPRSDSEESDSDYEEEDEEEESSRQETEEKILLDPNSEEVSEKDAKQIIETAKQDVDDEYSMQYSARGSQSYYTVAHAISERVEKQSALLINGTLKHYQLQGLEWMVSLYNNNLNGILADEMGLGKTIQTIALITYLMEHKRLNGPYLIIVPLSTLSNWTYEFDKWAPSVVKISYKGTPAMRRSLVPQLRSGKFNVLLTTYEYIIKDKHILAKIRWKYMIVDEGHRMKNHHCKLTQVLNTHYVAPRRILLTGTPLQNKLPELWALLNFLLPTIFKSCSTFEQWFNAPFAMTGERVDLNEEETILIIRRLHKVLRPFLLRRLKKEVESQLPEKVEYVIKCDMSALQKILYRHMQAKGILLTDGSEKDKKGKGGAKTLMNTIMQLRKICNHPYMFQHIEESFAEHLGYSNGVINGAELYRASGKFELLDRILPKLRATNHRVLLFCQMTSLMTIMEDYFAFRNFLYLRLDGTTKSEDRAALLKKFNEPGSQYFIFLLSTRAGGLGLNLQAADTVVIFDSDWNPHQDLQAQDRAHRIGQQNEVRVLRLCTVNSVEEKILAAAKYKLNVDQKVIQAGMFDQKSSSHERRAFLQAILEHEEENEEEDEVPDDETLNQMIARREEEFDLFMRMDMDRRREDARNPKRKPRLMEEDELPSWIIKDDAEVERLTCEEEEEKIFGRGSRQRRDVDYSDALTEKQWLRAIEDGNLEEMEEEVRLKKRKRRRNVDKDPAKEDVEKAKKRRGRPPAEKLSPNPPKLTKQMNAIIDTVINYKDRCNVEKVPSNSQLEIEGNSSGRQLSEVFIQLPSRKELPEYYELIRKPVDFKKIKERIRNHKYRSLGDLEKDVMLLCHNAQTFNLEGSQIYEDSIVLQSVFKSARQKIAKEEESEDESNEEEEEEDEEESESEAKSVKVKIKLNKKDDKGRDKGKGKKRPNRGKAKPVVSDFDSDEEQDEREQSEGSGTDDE
SMILES,DC50 [1] [µM],Dmax [1] [%],DC50 [2] [µM],BRM HiBit Degradation Maximum measured [2]
"CS(=O)(=O)n1ccc(C(=O)N[C@@H](COCc2ccc(C(=O)NCCOc3ccc4c(c3)C(=O)N(C3CCC(=O)NC3=O)C4=O)cc2)C(=O)Nc2nc(-c3ccccc3)cs2)c1 (stereo partly drawn) [Compound 200, N-(2-[[2-(2,6-dioxopiperidin-3-yl)-1,3-dioxoisoindol-5-yl]oxy]ethyl)-4-[[(2S)-2-[(1-methanesulfonylpyrrol-3-yl)formamido]-2-[(4-phenyl-1,3-thiazol-2-yl)carbamoyl]ethoxy]methyl]benzamide]",> 10,< 50,> 10,C (‘C’ = Maximum degradation <50%)
"CS(=O)(=O)n1ccc(C(=O)N[C@@H](COCc2ccc(C(=O)NCCCCCCNc3ccc4c(c3)C(=O)N(C3CCC(=O)NC3=O)C4=O)cc2)C(=O)Nc2nc(-c3ccccc3)cs2)c1 (stereo partly drawn) [Compound 201, N-(6-[[2-(2,6-dioxopiperidin-3-yl)-1,3-dioxoisoindol-5-yl]amino]hexyl)-4-[[(2S)-2-[(1-methanesulfonylpyrrol-3-yl)formamido]-2-[(4-phenyl-1,3-thiazol-2-yl)carbamoyl]ethoxy]methyl]benzamide]",< 0.1,> 75,0.1 to 1,A (‘A’ = Maximum degradation >75%)
"CS(=O)(=O)n1ccc(C(=O)N[C@@H](COCc2ccc(C(=O)NCCOCCOCCOCCNC(=O)COc3ccc4c(c3)C(=O)N(C3CCC(=O)NC3=O)C4=O)cc2)C(=O)Nc2nc(-c3ccccc3)cs2)c1 (stereo partly drawn) [Compound 202, (2S)-3-[(4-[[2-(2-[2-[2-(2-[[2-(2,6-dioxopiperidin-3-yl)-1,3-dioxoisoindol-5-yl]oxy]acetamido)ethoxy]ethoxy]ethoxy)ethyl]carbamoyl]phenyl)methoxy]-2-[(1-methanesulfonylpyrrol-3-yl)formamido]-N-(4-phenyl-1,3-thiazol-2-yl)propanamide]",> 10,< 50,> 10,C (‘C’ = Maximum degradation <50%)
"CS(=O)(=O)n1ccc(C(=O)N[C@@H](COCc2ccc(C(=O)NCCOCCOCCNC(=O)COc3ccc4c(c3)C(=O)N(C3CCC(=O)NC3=O)C4=O)cc2)C(=O)Nc2nc(-c3ccccc3)cs2)c1 (stereo partly drawn) [Compound 203, (2S)-3-([4-[(2-[2-[2-(2-[[2-(2,6-dioxopiperidin-3-yl)-1,3-dioxoisoindol-5-yl]oxy]acetamido)ethoxy]ethoxy]ethyl)carbamoyl]phenyl]methoxy)-2-[(1-methanesulfonylpyrrol-3-yl)formamido]-N-(4-phenyl-1,3-thiazol-2-yl)propanamide]",> 10,< 50,> 10,C (‘C’ = Maximum degradation <50%)
"CS(=O)(=O)n1ccc(C(=O)N[C@@H](COCc2ccc(C(=O)NCCCC#Cc3ccc4c(c3)C(=O)N(C3CCC(=O)NC3=O)C4=O)cc2)C(=O)Nc2nc(-c3ccccc3)cs2)c1 (stereo partly drawn) [Compound 204, N-[5-[2-(2,6-dioxopiperidin-3-yl)-1,3-dioxoisoindol-5-yl]pent-4-yn-1-yl]-4-[[(2S)-2-[(1-methanesulfonylpyrrol-3-yl)formamido]-2-[(4-phenyl-1,3-thiazol-2-yl)carbamoyl]ethoxy]methyl]benzamide]",0.1 to 1,50 to 75,> 10,C (‘C’ = Maximum degradation <50%)
"CS(=O)(=O)n1ccc(C(=O)N[C@@H](COCc2ccc(C(=O)NCCOc3cccc(OCCNc4ccc5c(c4)C(=O)N(C4CCC(=O)NC4=O)C5=O)c3)cc2)C(=O)Nc2nc(-c3ccccc3)cs2)c1 (stereo partly drawn) [Compound 207, N-[2-[3-(2-[[2-(2,6-dioxopiperidin-3-yl)-1,3-dioxoisoindol-5-yl]amino]ethoxy)phenoxy]ethyl]-4-[[(2S)-2-[(1-methanesulfonylpyrrol-3-yl)formamido]-2-[(4-phenyl-1,3-thiazol-2-yl)carbamoyl]ethoxy]methyl]benzamide]",0.1 to 1,50 to 75,0.1 to 1,B (‘B’ = Maximum degradation ≥50% and ≤75%)

# Further lines, results first:
DC50 [1] [µM],Dmax [1] [%],DC50 [2] [µM],BRM HiBit Degradation Maximum measured [2],SMILES
> 10,< 50,> 10,C (‘C’ = Maximum degradation <50%),"CS(=O)(=O)n1ccc(C(=O)N[C@@H](COCc2ccc(C(=O)NCCCC#Cc3cccc4c3C(=O)N(C3CCC(=O)NC3=O)C4=O)cc2)C(=O)Nc2nc(-c3ccccc3)cs2)c1 (stereo partly drawn) [Compound 205, N-[5-[2-(2,6-dioxopiperidin-3-yl)-1,3-dioxoisoindol-4-yl]pent-4-yn-1-yl]-4-[[(2S)-2-[(1-methanesulfonylpyrrol-3-yl)formamido]-2-[(4-phenyl-1,3-thiazol-2-yl)carbamoyl]ethoxy]methyl]benzamide]"
> 10,< 50,> 10,C (‘C’ = Maximum degradation <50%),"CS(=O)(=O)n1ccc(C(=O)N[C@@H](COCc2ccc(C(=O)NCCOc3cccc(OCCNc4cccc5c4C(=O)N(C4CCC(=O)NC4=O)C5=O)c3)cc2)C(=O)Nc2nc(-c3ccccc3)cs2)c1 (stereo partly drawn) [Compound 206, N-[2-[3-(2-[[2-(2,6-dioxopiperidin-3-yl)-1,3-dioxoisoindol-4-yl]amino]ethoxy)phenoxy]ethyl]-4-[[(2S)-2-[(1-methanesulfonylpyrrol-3-yl)formamido]-2-[(4-phenyl-1,3-thiazol-2-yl)carbamoyl]ethoxy]methyl]benzamide]"
> 10,< 50,> 10,C (‘C’ = Maximum degradation <50%),"Cc1ncsc1-c1ccc(CNC(=O)[C@@H]2C[C@@H](O)CN2C(=O)[C@@H](NC(=O)CCCCC(=O)NCc2ccc(COC[C@H](NC(=O)c3ccn(S(C)(=O)=O)c3)C(=O)Nc3nc(-c4ccccc4)cs3)cc2)C(C)(C)C)cc1 [Compound 208, N-[(2S)-1-[(2S,4R)-4-hydroxy-2-([[4-(4-methyl-1,3-thiazol-5-yl)phenyl]methyl]carbamoyl)pyrrolidin-1-yl]-3,3-dimethyl-1-oxobutan-2-yl]-N′-[(4-[[(2S)-2-[(1-methanesulfonylpyrrol-3-yl)formamido]-2-[(4-phenyl-1,3-thiazol-2-yl)carbamoyl]ethoxy]methyl]phenyl)methyl]hexanediamide]"
> 10,< 50,> 10,C (‘C’ = Maximum degradation <50%),"Cc1ncsc1-c1ccc(CNC(=O)[C@@H]2C[C@@H](O)CN2C(=O)[C@@H](NC(=O)CCCCCCCCCCC(=O)NCc2ccc(COC[C@H](NC(=O)c3ccn(S(C)(=O)=O)c3)C(=O)Nc3nc(-c4ccccc4)cs3)cc2)C(C)(C)C)cc1 [Compound 209, N-[(2S)-1-[(2S,4R)-4-hydroxy-2-([[4-(4-methyl-1,3-thiazol-5-yl)phenyl]methyl]carbamoyl)pyrrolidin-1-yl]-3,3-dimethyl-1-oxobutan-2-yl]-N′-[(4-[[(2S)-2-[(1-methanesulfonylpyrrol-3-yl)formamido]-2-[(4-phenyl-1,3-thiazol-2-yl)carbamoyl]ethoxy]methyl]phenyl)methyl]dodecanediamide]"

# From patent publication US12662479B2 (Foghorn Therapeutics Inc., priority 2020, dated 2026)
